Data from US7232828B2, “PPAR Ligands that do not cause fluid retention, edema or congestive heart failure” (Bethesda Pharmaceuticals, Inc., priority 2002, dated 2007).
Entries after “also recorded” stand apart in the source; their conditions may differ. Like-named read-outs stand apart in the source and are kept apart here.

Key:
[1] = obese Zucker rat, oral, extremely high dose; cited from earlier work
human preadipocytes = settings: high concentrations; cited from earlier work
PPARγ = biological target: T1, PPARγ (Homo sapiens, UniProt P37231); assay: PPARγ transactivation assay in transfected CV-1 cells (luciferase reporter); type: cell-based; settings: for Activation of PPARγ (in words): at doses reasonably achievable at therapeutic doses
T1 construct: expressed in transfected cells; host or cells: CV-1 cells (CCL-70, ATCC)
T1 sequence (P37231 1-505): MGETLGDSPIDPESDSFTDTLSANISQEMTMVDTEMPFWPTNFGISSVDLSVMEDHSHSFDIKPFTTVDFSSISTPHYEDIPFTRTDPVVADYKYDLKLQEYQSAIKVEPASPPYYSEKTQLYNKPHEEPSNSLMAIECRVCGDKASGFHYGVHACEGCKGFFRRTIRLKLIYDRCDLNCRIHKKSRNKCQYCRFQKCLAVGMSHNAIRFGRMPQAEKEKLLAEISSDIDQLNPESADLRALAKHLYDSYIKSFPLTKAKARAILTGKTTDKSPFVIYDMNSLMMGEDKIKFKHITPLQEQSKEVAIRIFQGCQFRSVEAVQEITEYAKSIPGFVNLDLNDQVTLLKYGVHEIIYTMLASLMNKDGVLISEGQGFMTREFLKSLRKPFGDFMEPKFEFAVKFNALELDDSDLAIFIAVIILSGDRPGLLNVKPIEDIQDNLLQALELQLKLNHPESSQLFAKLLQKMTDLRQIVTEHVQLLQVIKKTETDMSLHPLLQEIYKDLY
Method: ARBs, or derivatives thereof, may be tested for their ability to activate the various PPAR isoforms by utilizing standard screening methods known to those skilled in the art including but not limited to cell based transactivation assays or cell free assays that test the ability of a compound to activate a PPAR construct by measuring the output of a reporter signal that reflects the extent of the PPAR activation. For example, the angiotensin receptor blocker telmisartan is added to the culture media of CV1 cells or other cells that can be transfected with a full length or partial PPAR cDNA sequence together with a reporter construct containing a PPAR response element or other appropriate response element fused to a reporter gene such as luciferase. […] Cell extracts were assayed for luciferase and β-galactosidase activity using Promega (Madison, Wis.) assay systems. All treatments were performed in triplicate, and normalized for β-galactosidase activity. Agonist concentrations yielding half maximal activation (EC50 values) were calculated using GraphPad Prism version 3.03 (GraphPad Software, Inc., San Diego, Calif.).

[2] = system: mouse preadipocyte cell line (3T3-L1); assay: In vitro adipocyte differentiation (adipogenesis) activity; type: cell-based
Method: The following examples 2 and 3 provide a generic means to measure adipocyte differentation to determine if one has an insulin-sensitizing agent. […] The cells are then plated at 1.5×10^4/cm^2 in a 96-well tissue culture plate (view plate, 96 white, Packard) coated with type 1 collagen. […] The compounds added from a stock solution of dimethyl sulfoxide (DMSO). […] DMSO (0.1%) was added to the control cultures. The medium was replaced with maintenance medium (DMEM supplemented with 5% of FBS and 100 ng/mL of insulin), and the cells cultured for 2 more days. Activity of stimulation of adipogenesis was determined by exposure of the cells to [14-C]-acetic acid (7.4 kBq/mL), and uptake of [14-C]-acetic acid monitored after 1 h of incubation. The medium is discarded and the cells washed twice with phosphate-buffered saline. The cells are air-dried, and […] of scintillation cocktail (Microscint-20, Packard) added to the wells, and counted with a Packard TopCount microplate scintillation counter.

[3] = patients with mild hypertension; cited from earlier work
[4] = conventional oral dosing; cited from earlier work
[5] = Clinical trial in a patient with hypertension, hypertriglyceridemia and type 2 diabetes
[6] = Clinical trial in a patient with osteoarthritis and inflammation (elevated CRP); type: in vivo, human; settings: for Serum CRP level: baseline 7.9
Text: A person with osteoarthritis and inflammation as judged by elevated C-reactive protein (CRP) levels was selected for therapy.

[7] = type: in vivo, human
Text: Insulin resistance is defined as a state in which circulating insulin levels in excess of the normal response to a glucose load are required to maintain the euglycemic state (Ford ES, et al. JAMA. (2002) 287:356-9). Insulin resistance, and the response of a patient with insulin resistance to therapy, may be quantified by assessing the homeostasis model assessment to insulin resistance (HOMA-IR) score, a reliable indicator of insulin resistance (Katsuki A, et al. Diabetes Care 2001;24:362-5). The estimate of insulin resistance by the homeostasis assessment model (HOMA)-IR score is calculated with the formula (Galvin P, et al. Diabet Med 1992;9:921-8): HOMA-IR=[fasting serum insulin (μU/mL)]×[fasting plasma glucose (mmol/L)/22.5]
A person with the metabolic syndrome was selected for therapy. […] The patient has the metabolic syndrome as defined by the National Cholesterol Education Program. The metabolic syndrome is associated with a 5-9 fold increase in the risk for developing type 2 diabetes and a 2-3 fold increase risk in cardiovascular mortality.

[8] = 160 mg/day oral, after seven weeks

In the case of `CCCCC1=NC2(CCCC2)C(=O)N1Cc1ccc(-c2ccccc2-c2nnn[nH]2)cc1` [irbesartan], the Insulin sensitivity [1] is given as “improved insulin sensitivity”, the Lipid levels [1] is given as “failed to improve lipid levels” and the Adipogenesis (human preadipocytes) is given as “can enhance adipogenesis”. The “Activation of PPARγ / luciferase reporter gene activity (in words)” value (PPARγ) was “can activate PPARγ; also recorded: found to activate PPARgamma” and the “PPARγ activation (fold activation)” value (PPARγ; tested at 10 μM, CV-1 cells) was 2-3 fold.

With `CCCCc1ncc(/C=C(\Cc2cccs2)C(=O)O)n1Cc1ccc(C(=O)O)cc1` [eprosartan] the “Promotion of adipogenesis (in words)” value [2] was “did not promote adipogenesis” and the “Activation of PPARγ (in words)” value (PPARγ) was “do not activate PPARγ”.

With `CCCCC(=O)N(Cc1ccc(-c2ccccc2-c2nnn[nH]2)cc1)[C@H](C(=O)O)C(C)C` [valsartan] the “Promotion of adipogenesis (in words)” value [2] was “did not promote adipogenesis” and the “Activation of PPARγ (in words)” value (PPARγ) was “do not activate PPARγ”.

For `CCCCc1nc(Cl)c(CO)n1Cc1ccc(-c2ccccc2-c2nn[nH]n2)cc1` [losartan], the “Effect on glucose metabolism, insulin sensitivity, and serum concentrations” value [3] is given as “neutral effect”.

For `CCCc1nc2c(C)cc(-c3nc4ccccc4n3C)cc2n1Cc1ccc(-c2ccccc2C(=O)O)cc1` [telmisartan], the “Concentrations that can be achieved in plasma” value [4] is listed as 1000 to 5000 nM, the “Promotion of adipogenesis (in words)” value [2] is listed as “promote adipogenesis” and the HDL cholesterol ([5]; 80 mg/day oral, after three weeks, baseline 48) is listed as 50 mg/dL. The Blood pressure ([5]; 80 mg/day oral, after three weeks, baseline 160/90) was 143/91, the Fasting glucose ([5]; 80 mg/day oral, after three weeks, baseline 183) was 188 mg/dL and the Triglyceride ([5]; 80 mg/day oral, after three weeks, baseline 264) was 281 mg/dL. For the same compound, the Blood pressure [5, 8] was 131/81, the Glucose level [5, 8] was 145 mg/dL and the HDL cholesterol [5, 8] was 60 mg/dL. For the same compound, the Triglyceride level [5, 8] was 178 mg/dL, the “Blood HDL-cholesterol (in words)” value ([5]; patient with type 2 diabetes) was “elevated blood HDL-cholesterol” and the “Hyperglycemia (in words)” value ([5]; patient with type 2 diabetes) was “lowered the hyperglycemia”. The “Plasma triglycerides (in words)” value ([5]; patient with type 2 diabetes) was “lowers plasma triglycerides”, the “Fluid retention, peripheral edema, pulmonary edema, congestive heart failure on clinical examination” value ([5]; type 2 diabetes patient, 160 mg/day) was “no evidence of any increase in fluid retention, peripheral edema, pulmonary edema, or congestive heart failure” and the “Serum CRP level” value ([6]; 80 mg/day oral, after 6 weeks) was 4.1 mg/L. For the same compound, the “Symptoms of inflammation and osteoarthritis” value ([6]; 80 mg/day oral, after 9 weeks) was “stabilized”, the “Serum CRP level” value ([6]; 80 mg/day oral, after 9 weeks) was 3.9 mg/L and the “Fluid retention, peripheral edema, pulmonary edema, congestive heart failure on clinical examination” value ([6]; osteoarthritis patient, 80 mg/day) was “no evidence of any increase in fluid retention, peripheral edema, pulmonary edema, or congestive heart failure”. The “Activation of PPARγ / luciferase reporter gene activity (in words)” value (PPARγ) was “can activate PPARγ; also recorded: significant increase in reporter gene activity”, the EC50 (PPARγ) was 5.6 µM and the “PPARγ activation relative to maximum level of activity achieved by full agonists pioglitazone and rosiglitazone” value (PPARγ; CV-1 cells) was 25%-30%. For the same compound, the “PPARγ activation (fold)” value (PPARγ; tested at 1-5 μM, CV-1 cells, 24 hr) was 5-8 fold, the “Diagnostic criteria of the metabolic syndrome (NCEP)” value ([7]; 80 mg/day oral, after two weeks) was “no longer meets the diagnostic criteria of the metabolic syndrome” and the Fasting glucose ([7]; 80 mg/day oral, after two weeks, baseline 118) was 105 mg/dL. The Fasting triglyceride level ([7]; 80 mg/day oral, after two weeks, baseline 129) was 115 mg/dL, the Blood pressure ([7]; 80 mg/day oral, after two weeks, baseline 160/79) was 130/69 and the “Insulin resistance as determined by HOMA-IR score (in words)” value ([7]; patient with the metabolic syndrome) was “improved insulin resistance”.
